# Source: patent US20260034103A1, “COMPOSITIONS AND METHODS FOR IMPROVING MEMORY AND COGNITION” (priority 2022, published 2026)
# Legend:
# [1] = tested on: Sprague Dawley rat hippocampal slices; test: Ex vivo electrophysiology in rat hippocampal slices: mEPSP frequency; format: cell-based
# Source text: (§1) The effect of compound 1 to enhance mEPSPs may be dependent on the influx of extracellular calcium.
# [2] = tested on: Sprague Dawley rat hippocampal slices; test: Ex vivo electrophysiology: paired-pulse ratio (short-term plasticity), CA1 with Schaffer collateral stimulation; format: cell-based; details: 10 nM and 100 nM; interstimulus intervals 50-400 ms; vs vehicle 0.01% DMSO
# Description: Response is Stratum radiatum of area CA1 of the hippocampus with Schaffer collateral stimulation. Statistical differences correspond to the ones observed between Compound 1 10 nM and Vehicle groups.
# Statistical differences correspond to the ones observed between Compound 1 100 nM and Vehicle groups.
# as §1
# [3] = tested on: Sprague Dawley rat hippocampal slices; test: Ex vivo electrophysiology: short-lasting long-term potentiation (S-LTP) at hippocampal CA1 synapses; format: cell-based; details: 10 nM; single 1-sec train of 100-Hz stimulation
# Source text: Time-point 0 represents delivery of HFS. Slopes of fEPSP are normalized to baseline and plotted against time.
# as §1
# rats = test: Freely behaving rodent model of long-term potentiation (LTP); format: in vivo, rat; details: 0.01 and 0.1 mg/kg IV
# Description: Amplitudes of fEPSP are normalized to baseline and plotted against time.
# A freely behaving rodent model of long-term potentiation (LTP), a frequently studied form of synaptic plasticity, was employed. LTP is a persistent increase in the strength of synaptic connections between neurons, and is a cellular mechanism widely considered to underlie the processes of learning and memory. At 0.01 and 0.1 mg/kg IV compound 1 increased LTP compared to vehicle controls (FIGS. 10-11).
# [4] = tested on: adult subjects with major depressive disorder (MDD); test: Phase 2 clinical trial in MDD: HAM-D Item #17 Retardation; format: in vivo, human; details: 20 mg/day; for HAM-D Item #17 Retardation Change From Baseline, Max / HAM-D Item #17 Retardation Change From Baseline, Mean (SD) / HAM-D Item #17 Retardation Change From Baseline, Median / HAM-D Item #17 Retardation Change From Baseline, Min / HAM-D Item #17 Retardation score, Max / HAM-D Item #17 Retardation score, Mean (SD) / HAM-D Item #17 Retardation score, Median / HAM-D Item #17 Retardation score, Min: mITT, Females
# Description: (§2) A Phase 2, multicenter, double-blind, randomized, placebo-controlled study of the safety and efficacy of SP-624 in the treatment of adult subjects with major depressive disorder (MDD) as defined by the Diagnostic and Statistical Manual of Mental Disorders, Fifth Edition (DSM-5) was carried out. Following the successful completion of a Screening Phase, subjects were randomized to one of two treatment groups in a 1:1 ratio and received Compound 1 (SP-624) or placebo over a treatment period of four weeks (Treatment Group #1: SP-624 20 mg/day; Treatment Group #2: Placebo).
# (§3) Prior to initiating the 4-week treatment period, subjects completed a Screening/Baseline period of up to 28 days, during which time all screening assessments were performed, and any current depression medications discontinued. All screening assessments were completed before discontinuing any current depression medications. Subjects returned for a Baseline Visit to complete efficacy and safety assessments. During the treatment period, subjects returned to the investigative site to complete efficacy and safety assessments at the end of Weeks 1, 2, 3, and 4. After the final dose of study drug, subjects completed a follow-up period of two weeks and returned at the end of Weeks 5 and 6. Subjects may be treated with anti-depressant medications according to physician recommendations after completion of the Week 5 Visit.
# (§4) Each dose of Compound 1 was supplied as two capsules, each containing 10 mg of active pharmaceutical ingredient (API). Matching placebo capsules identical in shape and color to the active capsules were used.
# The second cognitive function measurement is HAM-D Item #17 Retardation (slowness of thought and speech, impaired ability to concentrate, decreased motor activity). The answer scale is: 0—Normal speech and thought; 1—Slight retardation at interview (mild psychomotor retardation); 2—Obvious retardation at interview (moderate, some difficulty with interview, noticeable pauses and slowness of thought); 3—Interview difficult (severe psychomotor retardation, very long pauses); 4—Complete stupor (extreme retardation, interview barely possible).
# [5] = tested on: adult subjects with major depressive disorder (MDD); test: Phase 2 clinical trial in MDD: MADRS Item #6 Concentration Difficulties; format: in vivo, human; parameters: key to MADRS Item #6 Concentration Difficulty score, Median / MADRS Item #6 Concentration Difficulty score, Min / MADRS Item #6 Concentration Difficulty score, Max: 0 = no concentration difficulty, 6 = unable to read/converse; key to MADRS Item #6 Change from Baseline, Median / MADRS Item #6 Change from Baseline, Max: change from baseline on 0–6 MADRS item scale; details: for MADRS Item #6 Change from Baseline, Max / MADRS Item #6 Change from Baseline, Mean (SD) / MADRS Item #6 Change from Baseline, Median / MADRS Item #6 Change from Baseline, Min / MADRS Item #6 Concentration Difficulty score, Max / MADRS Item #6 Concentration Difficulty score, Mean (SD) / MADRS Item #6 Concentration Difficulty score, Median / MADRS Item #6 Concentration Difficulty score, Min / MADRS Item #6 Change from Baseline, LSM Difference (95% CI) SP-624 vs Placebo: mITT, Females; for MADRS Item #6 Change from Baseline, LSM Difference (95% CI) SP-624 vs Placebo: MMRM
# Description: as §2, §3, §4
# The third cognitive function measurement is MADRS Item #6 Concentration Difficulties (representing difficulties in collecting one's thoughts mounting to incapacitating lack of concentration, rated according to intensity, frequency, and degree of incapacity produced). The answer scale is: 0—No difficulties in concentration; 1—blank; 2—Occasional difficulties in collecting one's thoughts; 3—blank; 4—Difficulties in concentrating and sustaining thought which reduces ability to read or hold a conversation; 5—blank; 6—Unable to read or converse without great difficulty.
# [6] = Week 5 (1-week after the last dose), 20 mg/day for four weeks
smiles,measurement,setting,value
"COC1=CC(=O)C[C@@H](C)[C@]12Oc1c(Cl)c(-c3nnc(C)o3)cc(OC)c1C2=O [Compound 1, (2S,6′R)-7-Chloro-2′,4-dimethoxy-6′-methyl-6-(5-methyl-1,3,4-oxadiazol-2-yl)-3H-spiro[1-benzofuran-2,1′-cyclohex[2]ene]-3,4′-dione]",frequency of miniature excitatory post-synaptic potentials (mEPSPs) in the hippocampus,[1],increase the frequency
same,short-term plasticity (paired-pulse ratio),[2],enhanced short-term plasticity
same,short-lasting long-term potentiation (S-LTP),[3],tended to increase
same,LTP compared to vehicle controls,rats,increased LTP
same,"HAM-D Item #17 Retardation Change From Baseline, Max",[4]; Week 2,2
same,"HAM-D Item #17 Retardation Change From Baseline, Mean (SD)",[4]; Week 2,−0.2 (0.79)
same,"HAM-D Item #17 Retardation Change From Baseline, Median",[4]; Week 2,0
same,"HAM-D Item #17 Retardation Change From Baseline, Min",[4]; Week 2,−2
same,"HAM-D Item #17 Retardation score, Max",[4]; Week 2,2
same,"HAM-D Item #17 Retardation score, Mean (SD)",[4]; Week 2,0.6 (0.71)
same,"HAM-D Item #17 Retardation score, Median",[4]; Week 2,0
same,"HAM-D Item #17 Retardation score, Min",[4]; Week 2,0
same,"HAM-D Item #17 Retardation Change From Baseline, Max",[4]; Week 4,1
same,"HAM-D Item #17 Retardation Change From Baseline, Mean (SD)",[4]; Week 4,−0.4 (0.82)
same,"HAM-D Item #17 Retardation Change From Baseline, Median",[4]; Week 4,0
same,"HAM-D Item #17 Retardation Change From Baseline, Min",[4]; Week 4,−2
same,"HAM-D Item #17 Retardation score, Max",[4]; Week 4,2
same,"HAM-D Item #17 Retardation score, Mean (SD)",[4]; Week 4,0.4 (0.55)
same,"HAM-D Item #17 Retardation score, Median",[4]; Week 4,0
same,"HAM-D Item #17 Retardation score, Min",[4]; Week 4,0
same,"HAM-D Item #17 Retardation, improvement in score vs placebo",[4]; by week 4 of treatment,greater improvement in score
same,"MADRS Item #6 Change from Baseline, Max","[5]; Week 1, 20 mg/day",1
same,"MADRS Item #6 Change from Baseline, Mean (SD)","[5]; Week 1, 20 mg/day",−0.7 (1.27)
same,"MADRS Item #6 Change from Baseline, Median","[5]; Week 1, 20 mg/day",0
same,"MADRS Item #6 Change from Baseline, Min","[5]; Week 1, 20 mg/day",−5
same,"MADRS Item #6 Concentration Difficulty score, Max","[5]; Week 1, 20 mg/day",6
same,"MADRS Item #6 Concentration Difficulty score, Mean (SD)","[5]; Week 1, 20 mg/day",3.0 (1.48)
same,"MADRS Item #6 Concentration Difficulty score, Median","[5]; Week 1, 20 mg/day",4
same,"MADRS Item #6 Concentration Difficulty score, Min","[5]; Week 1, 20 mg/day",0
same,"MADRS Item #6 Change from Baseline, LSM Difference (95% CI) SP-624 vs Placebo","[5]; Week 1, 20 mg/day, P-value 0.339","−0.2 (−0.5, 0.2)"
same,"MADRS Item #6 Change from Baseline, Max","[5]; Week 2, 20 mg/day",3
same,"MADRS Item #6 Change from Baseline, Mean (SD)","[5]; Week 2, 20 mg/day",−0.7 (1.27)
same,"MADRS Item #6 Change from Baseline, Median","[5]; Week 2, 20 mg/day",0
same,"MADRS Item #6 Change from Baseline, Min","[5]; Week 2, 20 mg/day",−4
same,"MADRS Item #6 Concentration Difficulty score, Max","[5]; Week 2, 20 mg/day",5
same,"MADRS Item #6 Concentration Difficulty score, Mean (SD)","[5]; Week 2, 20 mg/day",3.0 (1.37)
same,"MADRS Item #6 Concentration Difficulty score, Median","[5]; Week 2, 20 mg/day",3
same,"MADRS Item #6 Concentration Difficulty score, Min","[5]; Week 2, 20 mg/day",0
same,"MADRS Item #6 Change from Baseline, LSM Difference (95% CI) SP-624 vs Placebo","[5]; Week 2, 20 mg/day, P-value 0.753","0.1 (−0.3, 0.4)"
same,"MADRS Item #6 Change from Baseline, Max","[5]; Week 3, 20 mg/day",0
same,"MADRS Item #6 Change from Baseline, Mean (SD)","[5]; Week 3, 20 mg/day",−1.2 (1.40)
same,"MADRS Item #6 Change from Baseline, Median","[5]; Week 3, 20 mg/day",−1
same,"MADRS Item #6 Change from Baseline, Min","[5]; Week 3, 20 mg/day",−5
same,"MADRS Item #6 Concentration Difficulty score, Max","[5]; Week 3, 20 mg/day",4
same,"MADRS Item #6 Concentration Difficulty score, Mean (SD)","[5]; Week 3, 20 mg/day",2.6 (1.58)
same,"MADRS Item #6 Concentration Difficulty score, Median","[5]; Week 3, 20 mg/day",3
same,"MADRS Item #6 Concentration Difficulty score, Min","[5]; Week 3, 20 mg/day",0
same,"MADRS Item #6 Change from Baseline, LSM Difference (95% CI) SP-624 vs Placebo","[5]; Week 3, 20 mg/day, P-value 0.214","−0.3 (−0.7, 0.2)"
same,"MADRS Item #6 Change from Baseline, Max","[5]; Week 4, 20 mg/day",1
same,"MADRS Item #6 Change from Baseline, Mean (SD)","[5]; Week 4, 20 mg/day",−1.2 (1.51)
same,"MADRS Item #6 Change from Baseline, Median","[5]; Week 4, 20 mg/day",−1
same,"MADRS Item #6 Change from Baseline, Min","[5]; Week 4, 20 mg/day",−4
same,"MADRS Item #6 Concentration Difficulty score, Max","[5]; Week 4, 20 mg/day",5
same,"MADRS Item #6 Concentration Difficulty score, Mean (SD)","[5]; Week 4, 20 mg/day",2.5 (1.67)
same,"MADRS Item #6 Concentration Difficulty score, Median","[5]; Week 4, 20 mg/day",3
same,"MADRS Item #6 Concentration Difficulty score, Min","[5]; Week 4, 20 mg/day",0
same,"MADRS Item #6 Change from Baseline, LSM Difference (95% CI) SP-624 vs Placebo","[5]; Week 4, 20 mg/day, P-value 0.144","−0.3 (−0.8, 0.1)"
same,"MADRS Item #6 Change from Baseline, Max",[5]; [6],1
same,"MADRS Item #6 Change from Baseline, Mean (SD)",[5]; [6],−1.3 (1.51)
same,"MADRS Item #6 Change from Baseline, Median",[5]; [6],−1
same,"MADRS Item #6 Change from Baseline, Min",[5]; [6],−5
same,"MADRS Item #6 Concentration Difficulty score, Max",[5]; [6],5
same,"MADRS Item #6 Concentration Difficulty score, Mean (SD)",[5]; [6],2.4 (1.63)
same,"MADRS Item #6 Concentration Difficulty score, Median",[5]; [6],3
same,"MADRS Item #6 Concentration Difficulty score, Min",[5]; [6],0
same,"MADRS Item #6 Change from Baseline, LSM Difference (95% CI) SP-624 vs Placebo","[5]; Week 5 (1-week after the last dose), 20 mg/day for four weeks, P-value 0.007","−0.6 (−1.1, −0.2)"
same,"MADRS Item #6 Concentration Difficulties, improvement in score vs placebo","[5]; all measurement times through week 5, 20 mg/day",greater improvement in score
